Measured values published in the NIST ThermoML archive (doi:10.1007/s10765-009-0610-6).

Settings: Liquid; for mass density: 101.33 kPa, Vibrating tube method; for speed of sound: Pulse-echo method

BrCCCBr [1,3-dibromopropane]
Settings	mass density [kg/m3]
292.55 K	1980.22
297.98 K	1970.22
303.07 K	1961.58
308.02 K	1952.84
314.58 K	1941.18

Settings	speed of sound [m/s]
292.66 K, 100 kPa	1078.9
292.72 K, 15200 kPa	1114.4
292.78 K, 30400 kPa	1148.6
292.79 K, 45600 kPa	1180.5
292.8 K, 60810 kPa	1210.8
292.8 K, 91220 kPa	1265.8
292.82 K, 76010 kPa	1239.1
292.83 K, 101350 kPa	1283
298.03 K, 76000 kPa	1227.5
298.04 K, 45600 kPa	1167.8
298.04 K, 60810 kPa	1198.5
298.04 K, 91210 kPa	1255
298.05 K, 30400 kPa	1135.1
298.07 K, 15210 kPa	1100.1
298.08 K, 101330 kPa	1272.4
298.61 K, 100 kPa	1062.6
302.95 K, 15210 kPa	1087.4
302.95 K, 30410 kPa	1123
302.95 K, 45600 kPa	1156.1
302.95 K, 60790 kPa	1187.2
302.95 K, 76010 kPa	1216.7
302.95 K, 91220 kPa	1244.5
302.95 K, 101350 kPa	1262.3
303.58 K, 100 kPa	1049
308.04 K, 76010 kPa	1205.6
308.04 K, 91210 kPa	1233.7
308.04 K, 101350 kPa	1251.8
308.05 K, 15210 kPa	1074.3
308.05 K, 30410 kPa	1110.5
308.05 K, 45620 kPa	1144.2
308.05 K, 60820 kPa	1175.8
308.67 K, 100 kPa	1035.3
313.41 K, 15230 kPa	1060.7
313.41 K, 30410 kPa	1097.5
313.41 K, 45610 kPa	1131.7
313.41 K, 60800 kPa	1163.8
313.41 K, 76010 kPa	1194
313.42 K, 91200 kPa	1222.6
313.42 K, 101330 kPa	1240.8
314.7 K, 100 kPa	1019

BrCCCCCBr [1,5-dibromopentane]
Settings	speed of sound [m/s]
292.38 K, 100 kPa	1149.5
292.47 K, 91200 kPa	1354
292.48 K, 30400 kPa	1226.2
292.5 K, 45600 kPa	1260.8
292.52 K, 60800 kPa	1293.4
292.53 K, 15210 kPa	1189.1
292.57 K, 101320 kPa	1372.2
292.59 K, 76010 kPa	1324.4
298 K, 60800 kPa	1281.2
298 K, 91200 kPa	1342.4
298 K, 101330 kPa	1361.6
298.01 K, 45600 kPa	1248
298.02 K, 30410 kPa	1212.7
298.03 K, 15210 kPa	1174.8
298.05 K, 76000 kPa	1312.6
298.37 K, 100 kPa	1133
303 K, 76000 kPa	1302
303.01 K, 15200 kPa	1162.1
303.01 K, 30400 kPa	1200.6
303.01 K, 60790 kPa	1270
303.01 K, 91200 kPa	1331.8
303.01 K, 101340 kPa	1350.7
303.02 K, 45600 kPa	1236.5
303.4 K, 100 kPa	1119.3
308.03 K, 15210 kPa	1148.7
308.03 K, 30410 kPa	1187.7
308.03 K, 45590 kPa	1224
308.05 K, 101330 kPa	1340
308.06 K, 60790 kPa	1257.9
308.06 K, 76000 kPa	1290.1
308.06 K, 91200 kPa	1320.5
308.38 K, 100 kPa	1105.8
313.14 K, 76030 kPa	1279.3
313.16 K, 91210 kPa	1310.1
313.16 K, 101330 kPa	1330
313.17 K, 45610 kPa	1212.3
313.18 K, 60800 kPa	1246.8
313.2 K, 15210 kPa	1135.8
313.2 K, 30410 kPa	1175.5
314.36 K, 100 kPa	1089.7
